ChEMBL document CHEMBL1201862, “PubChem BioAssay data set” (2004)
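Grown in 96-well plates, cells were treated for 48 hours with each compound at five concentrations. Insufficient inhibition: endpoint recorded as highest concentration tested. GI50 is the concentration that inhibits growth by half.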 Active and inactive are the calls of the source. No stated cut-off is given here; in the data, active = GI50 up to about 1.1 µM and inactive = higher.

How the values were obtained:
Assay in all cases: NCI-60 cell line screen, 48 h
[1] = test system: NCI-H522
[2] = test system: HCT-15
[3] = test system: OVCAR-8
[4] = test system: Hs-578T
[5] = test system: SF-268
[6] = test system: SF-539
[7] = test system: SR
[8] = test system: MCF7
[9] = test system: SF-295
[10] = test system: MOLT-4
[11] = test system: MDA-MB-435
[12] = test system: Malme-3M
[13] = test system: OVCAR-4
[14] = test system: DU-145
[15] = test system: ACHN
[16] = test system: PC-3
[17] = test system: UACC-257
[18] = test system: RPMI-8226
[19] = test system: SK-MEL-5
[20] = test system: MDA-MB-231
[21] = test system: HOP-62
[22] = test system: HCC 2998
[23] = test system: HT-29
[24] = test system: HL-60
[25] = test system: U-251
[26] = test system: UACC-62
[27] = test system: MDA-N
[28] = test system: K562
[29] = test system: NCI-H226
[30] = test system: NCI-H23
[31] = test system: SK-MEL-2
[32] = test system: LOX IMVI
[33] = test system: KM12
[34] = test system: COLO 205
[35] = test system: BT-549
[36] = test system: T47D
[37] = test system: CAKI-1
[38] = test system: UO-31
[39] = test system: SNB-19
[40] = test system: HCT-116
[41] = test system: SK-MEL-28
[42] = test system: M14
[43] = test system: SN12C
[44] = test system: SNB-75
[45] = test system: HOP-92
[46] = test system: OVCAR-5
[47] = test system: CCRF-CEM
[48] = test system: NCI-H460
[49] = test system: A549
[50] = test system: EKVX
[51] = test system: SW-620
[52] = test system: 786-0
[53] = test system: SK-OV-3
[54] = test system: TK-10
[55] = test system: IGROV-1
[56] = test system: OVCAR-3
[57] = test system: NCI/ADR-RES
[58] = test system: RXF 393
[59] = test system: A498

With COc1ccc(C(=O)CC(c2ccc(OC)c(OC)c2)c2c(O)oc3ccccc3c2=O)cc1OC (stereo not drawn) the GI50 [1] was > 100 µM (inactive), the GI50 [2] was > 100 µM and the GI50 [3] was > 100 µM (inactive). For the same compound, the GI50 [4] was > 100 µM (inactive), the GI50 [5] was > 100 µM (inactive) and the GI50 [6] was > 100 µM (inactive). The GI50 [7] was > 100 µM (inactive), the GI50 [8] was > 100 µM (inactive) and the GI50 [9] was > 100 µM (inactive). For the same compound, the GI50 [10] was > 100 µM (inactive), the GI50 [11] was > 100 µM (inactive) and the GI50 [12] was > 100 µM (inactive). The GI50 [13] was > 100 µM (inactive), the GI50 [14] was > 100 µM (inactive) and the GI50 [15] was > 100 µM (inactive). The GI50 [16] was > 100 µM (inactive), the GI50 [17] was > 100 µM (inactive) and the GI50 [18] was 95.1 µM (inactive). The GI50 [19] was > 100 µM (inactive), the GI50 [20] was > 100 µM (inactive) and the GI50 [21] was > 100 µM (inactive). For the same compound, the GI50 [22] was > 100 µM (inactive), the GI50 [23] was > 100 µM (inactive) and the GI50 [24] was > 100 µM (inactive). For the same compound, the GI50 [25] was > 100 µM (inactive), the GI50 [26] was > 100 µM (inactive) and the GI50 [27] was > 100 µM (inactive). The GI50 [28] was > 100 µM (inactive), the GI50 [29] was > 100 µM (inactive) and the GI50 [30] was > 100 µM (inactive). The GI50 [31] was > 100 µM (inactive), the GI50 [32] was > 100 µM (inactive) and the GI50 [33] was > 100 µM (inactive). The GI50 [34] was > 100 µM (inactive), the GI50 [35] was > 100 µM (inactive) and the GI50 [36] was > 100 µM (inactive). For the same compound, the GI50 [37] was > 100 µM (inactive), the GI50 [38] was > 100 µM (inactive) and the GI50 [39] was > 100 µM (inactive). For the same compound, the GI50 [40] was > 100 µM (inactive), the GI50 [41] was > 100 µM (inactive) and the GI50 [42] was > 100 µM (inactive). The GI50 [43] was > 100 µM (inactive), the GI50 [44] was > 100 µM (inactive) and the GI50 [45] was 28.4 µM (inactive). For the same compound, the GI50 [46] was > 100 µM (inactive), the GI50 [47] was > 100 µM (inactive) and the GI50 [48] was > 100 µM (inactive). The GI50 [49] was > 100 µM (inactive), the GI50 [50] was > 100 µM (inactive) and the GI50 [51] was > 100 µM (inactive). The GI50 [52] was > 100 µM (inactive), the GI50 [53] was > 100 µM (inactive) and the GI50 [54] was > 100 µM (inactive). The GI50 [55] was > 100 µM (inactive), the GI50 [56] was > 100 µM (inactive) and the GI50 [57] was > 100 µM (inactive). The GI50 [58] was > 100 µM (inactive).
COc1cc2c(cc1OC)C13CC[N+]4(C)CC5=CCOC6CC(=O)N2C1C6C5CC34[O-] (stereo not drawn) was tested, and the GI50 [1] was > 100 µM (inactive), the GI50 [2] was > 100 µM and the GI50 [3] was > 100 µM (inactive). The GI50 [59] was > 100 µM (inactive), the GI50 [4] was > 100 µM (inactive) and the GI50 [5] was > 100 µM (inactive). For the same compound, the GI50 [6] was > 100 µM (inactive), the GI50 [7] was > 100 µM (inactive) and the GI50 [8] was > 100 µM (inactive). For the same compound, the GI50 [9] was > 100 µM (inactive), the GI50 [10] was > 100 µM (inactive) and the GI50 [11] was > 100 µM (inactive). The GI50 [12] was > 100 µM (inactive), the GI50 [13] was > 100 µM (inactive) and the GI50 [14] was > 100 µM (inactive). For the same compound, the GI50 [15] was > 100 µM (inactive), the GI50 [16] was > 100 µM (inactive) and the GI50 [17] was > 100 µM (inactive). The GI50 [18] was > 100 µM (inactive), the GI50 [19] was > 100 µM (inactive) and the GI50 [20] was > 100 µM (inactive). For the same compound, the GI50 [21] was > 100 µM (inactive), the GI50 [24] was > 100 µM (inactive) and the GI50 [25] was > 100 µM (inactive). For the same compound, the GI50 [26] was > 100 µM (inactive), the GI50 [27] was > 100 µM (inactive) and the GI50 [28] was > 100 µM (inactive). For the same compound, the GI50 [29] was > 100 µM (inactive), the GI50 [30] was > 100 µM (inactive) and the GI50 [32] was > 100 µM (inactive). The GI50 [33] was > 100 µM (inactive), the GI50 [34] was > 100 µM (inactive) and the GI50 [35] was > 100 µM (inactive). The GI50 [36] was > 100 µM (inactive), the GI50 [37] was > 100 µM (inactive) and the GI50 [38] was > 100 µM (inactive). The GI50 [39] was > 100 µM (inactive), the GI50 [40] was > 100 µM (inactive) and the GI50 [41] was > 100 µM (inactive). For the same compound, the GI50 [42] was > 100 µM (inactive), the GI50 [43] was > 100 µM (inactive) and the GI50 [44] was > 100 µM (inactive). For the same compound, the GI50 [45] was > 100 µM (inactive), the GI50 [47] was > 100 µM (inactive) and the GI50 [48] was > 100 µM (inactive). The GI50 [49] was > 100 µM (inactive), the GI50 [50] was > 100 µM (inactive) and the GI50 [51] was > 100 µM (inactive). The GI50 [52] was > 100 µM (inactive), the GI50 [53] was > 100 µM (inactive) and the GI50 [54] was > 100 µM (inactive). The GI50 [55] was > 100 µM (inactive), the GI50 [56] was > 100 µM (inactive) and the GI50 [57] was > 100 µM (inactive). For the same compound, the GI50 [58] was > 100 µM (inactive).
